5 compounds from US20160067246A1, “USE OF PHOSPHODIESTERASE 5A INHIBITORS FOR THE TREATMENT OF MUSCULAR DYSTROPHY” (CEDARS-SINAI MEDICAL CENTER, priority 2013, published 2016) can be followed below.

What all share (format): in vivo, human
Series [1] concerns boys with Duchenne muscular dystrophy (DMD). Put plainly: Functional sympatholysis (LBNP, NIR spectroscopy, rest vs handgrip) with PDE5 inhibition in DMD. Particulars: for effect of chronic background medication on functional sympatholysis / functional ischemia in DMD: boys with DMD on chronic glucocorticoid or prophylactic cardiac treatment; for LBNP-induced ΔHbO2+MbO2 (% TLS) at rest / LBNP-induced ΔHbO2+MbO2 (% TLS) during handgrip: DMD, analysis using all 12 boys. As for the experimental part:
Forearm muscle oxygenation was measured with near-infrared (NIR) spectroscopy, as previously described.^4B Briefly, optodes were placed over the belly of the flexor digitorum profundus, the main muscle recruited during handgrip. The optodes were housed in a customized flexible rubber casing, ensuring a fixed and invariant position of the optodes relative to each other, and was secured to the skin with adhesive. The optodes were covered with an optically dense, black vinyl sheet, to minimize interference from external light or loss of NIR transmitted light. The forearm was wrapped with an elastic bandage to minimize movement of the optodes.
Before each experiment, absorption and scattering coefficients were calibrated against an external standard. After each experiment, a cuff was inflated on the upper arm to supra-systolic pressure of 200 mmHg to establish the total labile signal (TLS, the difference between the baseline and nadir in muscle tissue oxygenation). Changes in forearm tissue oxygenation were expressed as a percentage of TLS.
Handgrip exercise was performed with a dynamometer (Smedley Hand Dynamometer modified by Stoelting). To determine maximal voluntary contraction (MVC), each subject was asked to grip the dynamometer as hard as possible. […] Subjects performed intermittent isometric handgrip (20 handgrips per minute, 50% duty cycle) at 20% MVC for 7 minutes.
The subjects lower body was enclosed in a negative pressure chamber to the level of the iliac crest as previously described.^9B The pressure of the chamber was measured by a Statham transducer (Gould Inc.). Lower body negative pressure (LBNP) at −20 mmHg simulates mild orthostatic stress (that is, transition from the supine to the seated position). This technique mainly unloads the cardiopulmonary baroreceptors, producing highly reproducible reflex increases in sympathetic vasoconstrictor drive to the skeletal muscle vasculature without changing systemic blood pressure.^9B
The subjects' lower body was enclosed in a negative pressure chamber to the level of the iliac crest as previously described. The pressure in the chamber was measured by a Statham transducer (Gould Inc.). Lower body negative pressure (LBNP) at −20 to −30 mmHg simulates mild orthostatic stress caused by transition from the supine to the seated position. This technique mainly unloads the low-pressure cardiopulmonary baroreceptors, producing highly reproducible reflex increases in sympathetic vasoconstrictor drive to the skeletal muscle vasculature without changing systemic blood pressure. To measure exercise-induced attenuation of reflex vasoconstriction (i.e., functional sympatholysis), the LBNP was (i) applied at rest, and then (ii) superimposed on mild rhythmic handgrip at 20% MVC. Reflex vasoconstriction was measured as the LBNP-induced decrease in forearm muscle oxygenation by NIR spectroscopy. Using the pressure inside the LBNP chamber as a trigger, the Powerlab software was programed to mean the HbO2+MbO2 signal for 20 seconds before the onset of LBNP and for 20 seconds before the offset of LBNP; the difference between these mean values was taken as the LBNP-induced change in forearm muscle tissue oxygenation (20). Blood pressure, heart rate, and handgrip force were also recorded in response to 2 minutes of LBNP applied at rest and during the third to fifth minutes of the 7-minute exercise protocol.
Patients received 0.5 mg/kg of oral sildenafil or tadalafil on day 1, followed by 1.0 mg/kg of sildenafil or tadalafil on day 2. Patients then crossed over 2 weeks later for the opposite drug. Experiments were performed 1 hour (sildenafil) or 3 hours (tadalafil) after oral treatment to match the experiment with the peak blood level. Patients were queried about potential side-effects throughout the study visit. […]

The nature of series [2]: Pharmacokinetic study and drug blood levels in boys with DMD. Particulars: male, human, in vivo. As for the experimental part: Serum blood samples for pharmacokinetic determinations were collected from patients at time 0-hr, 0.25-hr, 0.5-hr, 1-hr, 2-hr, 4-hr, 8-hr, and 24-hr following each treatment (sildenafil and tadalafil) and each dose (0.5 vs. 1.0 mg/kg). Blood levels were measured with high-performance liquid chromatography-tandem mass spectrometry (NMS Labs).
Patients received 0.5 mg/kg of oral sildenafil or tadalafil on day 1, followed by 1.0 mg/kg of sildenafil or tadalafil on day 2. Patients then crossed over 2 weeks later for the opposite drug. Experiments were performed 1 hour (sildenafil) or 3 hours (tadalafil) after oral treatment to match the experiment with the peak blood level. Patients were queried about potential side-effects throughout the study visit.

Series [3] concerns boys with Duchenne muscular dystrophy (DMD). As to the kind of experiment: Exercise-induced hyperemia: brachial artery blood flow by Doppler ultrasound and hemodynamics, rest and post handgrip. Set-up: key to BA velocity: mean blood velocity in cm/s; Heart rate: unit not given here. How it is done: Subjects were studied in the supine position. Heart rate was measured continuously by electrocardiography, and blood pressure measured by automated oscillometric sphygomanometry using a child's cuff ([…] Monitor 300 Series). Brachial artery mean blood velocity (MBV) was measured from the exercising arm using pulsed-Doppler ultrasonography (Siemens iE33). Data were acquired continuously with a 9-MHz probe with a 60° angle of insonation, placed on the skin surface distal to the axilla. The ultrasound gate was optimized to ensure complete insonation of the entire vessel cross-section with constant intensity. The Doppler audio signal was converted to a real-time flow velocity signal using a validated Doppler audio converter,^8B and recorded using a PowerLab data acquisition system (ADInstruments, CO). Brachial artery diameter was measured by B-mode imaging in triplicate at rest. […] Brachial artery blood flow was calculated as MBV (cm/s)·πr^2·60, where r is radius of the brachial artery. […] exercise was performed with a dynamometer ([…] Dynamometer modified by Stoelting). To determine maximal voluntary contraction (MVC), each subject was asked to grip the dynamometer as hard as possible. […] Vascular conductance was calculated as forearm blood flow divided by mean arterial pressure. […] Patients then crossed over 2 weeks later for the opposite drug. […] Patients were queried about potential side-effects throughout the study visit. Baseline characteristics of patients and controls were compared using Student's t test. Exercise-induced attenuation of reflex vasoconstriction (functional sympatholysis) was assessed by comparing the LBNP-induced AHbO2+MbO2 (% TLS) at rest versus the LBNP-induced decrease in ΔHbO2+MbO2 during handgrip. Group differences in ΔHbO2+MbO2 were assessed using a Student's t test. The drug treatment effect on LBNP-induced Δ·HbO2+MbO2 (% TLS) at rest versus the LBNP-induced decrease in ΔHbO2+MbO2 during handgrip was compared to baseline for each patient using a Student's t test. The group difference in the % Δ in brachial artery blood flow was assessed using a student's t test. The drug treatment effect on the % Δ in brachial artery blood flow was compared using a student's t test. All analyses were performed in SigmaPlot. Data are expressed as mean±SEM, unless otherwise specified.

Consider `C[C@]12C=CC(=O)C=C1CC[C@@H]1[C@@H]2C(=O)C[C@@]2(C)[C@H]1CC[C@]2(O)C(=O)CO` [prednisone], for which the “effect of chronic background medication on functional sympatholysis / functional ischemia in DMD” value in series [1] is “neither prednisone nor deflazacort protects dystrophic muscle from functional ischemia”.
Still for that read-out and setting: the result for `CC(=O)OCC(=O)[C@@]12N=C(C)O[C@@H]1C[C@H]1[C@@H]3CCC4=CC(=O)C=C[C@]4(C)[C@H]3[C@@H](O)C[C@@]12C` [deflazacort] reads “neither prednisone nor deflazacort protects dystrophic muscle from functional ischemia”; that for `CCCCc1nc(Cl)c(CO)n1Cc1ccc(-c2ccccc2-c2nn[nH]n2)cc1` [losartan], “does not rescue functional sympatholysis”.
As usually defined, the half-life is the time needed for the level to fall by half in the phase considered. `CCCc1nn(C)c2c(=O)[nH]c(-c3cc(S(=O)(=O)N4CCN(C)CC4)ccc3OCC)nc12` [sildenafil]: in series [1] (6 patients with DMD, 0.5 and 1.0 mg/kg), the “restoration of functional sympatholysis in DMD (in words)” value was “equally restores functional sympatholysis”. In addition, the “LBNP-induced ΔHbO2+MbO2 (% TLS) at rest” value is reported as −18±4% in series [1] (0.5 mg/kg oral) and −20±3% in series [1] (1.0 mg/kg oral). In addition, the “LBNP-induced ΔHbO2+MbO2 (% TLS) during handgrip” value in series [1] (0.5 mg/kg oral) was −10±3%; in series [1] (1.0 mg/kg oral), −1±3%. Moreover, the half-life was 2.4 ± 0.09 h in series [2] (0.5 mg/kg) and 3.2 ± 0.5 h in series [2] (1 mg/kg). For the same compound, in series [2] (po), the “time after ingestion at which blood level had returned close to baseline” value worked out at 4 h. Besides, the peak blood level in series [2] (po, 0.5 mg/kg) was 82.5 ± 26.6 ng/mL; in series [2] (po, 1 mg/kg), 167.5 ± 34.1 ng/mL. Also, the “BA VC (vascular conductance)” value in series [3] (0.5 mg/kg, Post-exercise) came to 2.3 ± 0.3 ml/min/mmHg; in series [3] (0.5 mg/kg, Rest), 1.7 ± 0.3 ml/min/mmHg; in series [3] (1.0 mg/kg, Post-exercise), 2.7 ± 0.3 ml/min/mmHg; in series [3] (1.0 mg/kg, Rest), 1.9 ± 0.3 ml/min/mmHg. In addition, the BA blood flow in series [3] (0.5 mg/kg, Post-exercise) is 172 ± 18 mL/min; in series [3] (0.5 mg/kg, Rest), 125 ± 19 mL/min; in series [3] (1.0 mg/kg, Post-exercise) it was 196 ± 22 mL/min; in series [3] (1.0 mg/kg, Rest), 137 ± 21 mL/min. Besides, the BA velocity is 32 ± 3 in series [3] (0.5 mg/kg, Post-exercise); 24 ± 4 in series [3] (0.5 mg/kg, Rest); 37 ± 3 in series [3] (1.0 mg/kg, Post-exercise); 27 ± 5 in series [3] (1.0 mg/kg, Rest). Moreover, the Heart rate in series [3] (0.5 mg/kg, Post-exercise) was determined as 88 ± 6; in series [3] (0.5 mg/kg, Rest) it was 84 ± 5; in series [3] (1.0 mg/kg, Post-exercise) it was 93 ± 5; in series [3] (1.0 mg/kg, Rest), 92 ± 5. The MAP in series [3] (0.5 mg/kg, Post-exercise) worked out at 75 ± 2 mmHg; in series [3] (0.5 mg/kg, Rest), 77 ± 6 mmHg; in series [3] (1.0 mg/kg, Post-exercise) it was 74 ± 2 mmHg; in series [3] (1.0 mg/kg, Rest), 74 ± 2 mmHg.
For `NCCCC[C@H](N[C@@H](CCc1ccccc1)C(=O)O)C(=O)N1CCC[C@H]1C(=O)O` [lisinopril], the “effect of chronic background medication on functional sympatholysis / functional ischemia in DMD” value in series [1] was “does not rescue functional sympatholysis”.
